Columns and labels:
Assay type in all cases: binding
[1] = biological target: Recombinant human integrin αvβ8 (Homo sapiens (Human), UniProt P06756+P26012); assay: Solid Phase Receptor Assay (SPRA) for αvβ8 function; details: LAP-coated plate
Description: 6. Solid Phase Receptor Assay (SPRA) for αvβ8 Function
Recombinant human LAP protein (R&D Systems, Inc, 246-LP) diluted to 0.5 μg/mL in TBS+ buffer (25 mM Tris pH 7.4, 137 mM NaCl, 2.7 mM KCl, 1 mM CaCl2, 1 mM MgCl2, 1 mM MnCl2) was added to wells (50 μl/well) of a 96-well half-well transparent microtiter plate (Greiner 675061), and incubated overnight at 4° C. Wells were washed 3 times with 150 μL TBS+ and 150 μL of blocking buffer (TBS+ with 1% bovine serum albumin, Sigma A7906) were added. The plate was incubated for 1 hr at 37° C. and then washed 3× with TBS+. Recombinant human integrin αvβ8 (R&D Systems, 4135-AV) was diluted to 0.1 μg/mL in TBS+/0.1% bovine serum albumin. Compounds were diluted 1:100 into the integrin solution and 50 μL added to empty wells of the washed LAP-coated plate according to a standard template with each sample repeated in triplicate. After incubation for two hours at room temperature, the plate was washed 3× with 150 μL of TBS+. To each well, 50 μL of biotinylated anti-αv antibody (R&D Systems, BAF1219) at 1 μg/mL in TBS+/0.1% BSA were added and the plate was covered and incubated for 1 hr at room temperature. After washing the plate 3× with 150 μL of TBS+ buffer, 50 μL of streptavidin-conjugated horseradish peroxidase (R&D Systems, DY998) diluted in TBS+ blocking buffer were added to the wells and the plate incubated for 20 min at room temperature. The plate was washed 3× with TBS+ followed by 50 μL of TMB substrate (Sigma T4444) added to each well and the plate incubated for 20 min at room temperature. Plates were read by colorimetric detection at 650 nm wavelength using a Tecan Safire II plate reader. Concentration-response curves were constructed by non-linear regression (best fit) analysis, and IC50 values were calculated for each compound.

[2] = biological target: Recombinant human integrin αvβ1 (Homo sapiens (Human), UniProt P05556+P06756); assay: Solid Phase Receptor Assay (SPRA) for αvβ1 function; details: fibronectin-coated plate
Description: 2. Solid Phase Receptor Assay (SPRA) for αvβ1 Function
Purified human fibronectin (R&D Systems, 1918-FN) diluted to 5 μg/mL in TBS+ buffer (25 mM Tris pH 7.4, 137 mM NaCl, 2.7 mM KCl, 1 mM CaCl2, 1 mM MgCl2, 1 mM MnCl2) was added to wells (50 μL/well) of a 96-well half-well transparent microtiter plate (Greiner 675061) and incubated overnight at 4° C. Wells were washed 3 times with 150 μL TBS+ and 150 μL of blocking buffer (TBS+ with 1% bovine serum albumin, Sigma A7906) were added. The plate was incubated for 1 hr at 37° C. and then washed 3× with TBS+ buffer. Recombinant human integrin αvβ1 (R&D Systems. 6579-AV) was diluted to 2.0 μg/mL in TBS+/0.1% bovine serum albumin. Compounds were diluted 1:100 into the integrin solution and 50 μL added to empty wells of the washed fibronectin-coated plate according to a standard template with each sample repeated in triplicate. After incubation for two hours at room temperature, the plate was washed 3× with 150 μL of TBS+ buffer. To each well, 50 μL of biotinylated anti-αv antibody (R&D Systems, BAF1219) at 1 μg/mL in TBS+/0.1% BSA were added and the plate covered and incubated for 1 hr at room temperature. After washing the plate 3× with 150 μL of TBS+ buffer, 50 μL of streptavidin-conjugated horseradish peroxidase (R&D Systems, DY998) diluted in TBS+ blocking buffer were added to the wells and the plate incubated for 20 min at room temperature. The plate was washed 3× with TBS+ buffer followed by 50 μL of TMB substrate (Sigma, T4444) added to each well and the plate incubated for 20 min at room temperature. Plates were read by colorimetric detection at 650 nm wavelength using a Tecan Safire II plate reader. Concentration-response curves were constructed by non-linear regression (best fit) analysis, and IC50 values were calculated for each compound.

[3] = biological target: Recombinant human integrin αvβ5 (Homo sapiens (Human), UniProt P06756+P18084); assay: Solid Phase Receptor Assay (SPRA) for αvβ5 function; details: vitronectin-coated plate
Description: 4. Solid Phase Receptor Assay (SPRA) for αvβ5 Function
Recombinant human vitronectin (R&D Systems, 2308-VN) at 0.25 μg/mL in TBS+ buffer (25 mM Tris pH 7.4, 137 mM NaCl, 2.7 mM KCl, 1 mM CaCl2, 1 mM MgCl2, 1 mM MnCl2) was added to wells (50 μL/well) of a 96-well half-well transparent microtiter plate (Greiner 675061) and incubated overnight at 4° C. Wells were washed 3 times with 150 μL TBS+ and 150 μL of blocking buffer (TBS+ with 1% bovine serum albumin, Sigma A7906) were added. The plate was incubated for 1 hr at 37° C. and then washed 3× with TBS+ buffer. Recombinant human integrin αvβ5 (R&D Systems, 2528-AV) was diluted to 0.1 μg/mL in TBS+/0.1% bovine serum albumin. Compounds were diluted 1:100 into the integrin solution and then 50 μL added to empty wells of the washed vitronectin-coated plate according to a standard template with each sample repeated in triplicate. After incubation for two hours at room temperature, the plate was washed 3× with 150 μL of TBS+ buffer. To each well, 50 μl of biotinylated anti-αv antibody (R&D Systems, BAF1219) at 0.5 μg/mL in TBS+/0.1% BSA at 0.5 μg/mL were added and the plate covered and incubated for 1 hr at room temperature. After washing the plate 3× with 150 μL of TBS+ buffer, 50 μL of streptavidin-conjugated horseradish peroxidase (R&D Systems DY998) diluted in TBS+ blocking buffer were added to the wells and the plate incubated for 20 min at room temperature. The plate was washed 3× with TBS+ buffer followed by 50 μL of TMB substrate (Sigma T4444) added to each well and the plate incubated for 20 min at room temperature. Plates were read by colorimetric detection at 650 nm wavelength using a Tecan Safire II plate reader. Concentration-response curves were constructed by non-linear regression (best fit) analysis, and IC50 values were calculated for each compound.

Recombinant human integrin αvβ5, sequence (P06756 31-992): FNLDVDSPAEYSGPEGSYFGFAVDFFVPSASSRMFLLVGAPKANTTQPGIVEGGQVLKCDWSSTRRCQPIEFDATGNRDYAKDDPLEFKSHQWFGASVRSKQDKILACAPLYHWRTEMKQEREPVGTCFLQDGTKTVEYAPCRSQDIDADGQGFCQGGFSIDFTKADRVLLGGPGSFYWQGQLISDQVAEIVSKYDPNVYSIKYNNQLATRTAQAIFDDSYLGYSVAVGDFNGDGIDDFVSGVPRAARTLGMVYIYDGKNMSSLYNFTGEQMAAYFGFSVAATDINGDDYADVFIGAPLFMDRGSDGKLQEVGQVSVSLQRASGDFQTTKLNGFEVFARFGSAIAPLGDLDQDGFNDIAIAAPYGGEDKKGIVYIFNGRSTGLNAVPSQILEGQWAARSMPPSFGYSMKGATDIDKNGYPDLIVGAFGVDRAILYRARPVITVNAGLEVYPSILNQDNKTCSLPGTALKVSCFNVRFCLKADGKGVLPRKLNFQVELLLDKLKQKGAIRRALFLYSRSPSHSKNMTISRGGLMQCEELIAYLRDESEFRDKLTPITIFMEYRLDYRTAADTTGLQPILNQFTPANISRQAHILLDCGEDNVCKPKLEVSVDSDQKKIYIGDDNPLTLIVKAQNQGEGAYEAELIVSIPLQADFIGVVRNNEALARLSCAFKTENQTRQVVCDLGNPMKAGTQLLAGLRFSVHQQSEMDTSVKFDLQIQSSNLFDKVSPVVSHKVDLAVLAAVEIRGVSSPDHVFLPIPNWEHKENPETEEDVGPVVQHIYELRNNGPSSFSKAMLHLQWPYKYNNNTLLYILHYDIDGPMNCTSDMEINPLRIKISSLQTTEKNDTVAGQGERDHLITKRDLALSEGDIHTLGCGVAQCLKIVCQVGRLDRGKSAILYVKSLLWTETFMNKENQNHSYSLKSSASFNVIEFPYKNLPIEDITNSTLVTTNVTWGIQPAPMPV
Recombinant human integrin αvβ5, sequence (P18084 24-719): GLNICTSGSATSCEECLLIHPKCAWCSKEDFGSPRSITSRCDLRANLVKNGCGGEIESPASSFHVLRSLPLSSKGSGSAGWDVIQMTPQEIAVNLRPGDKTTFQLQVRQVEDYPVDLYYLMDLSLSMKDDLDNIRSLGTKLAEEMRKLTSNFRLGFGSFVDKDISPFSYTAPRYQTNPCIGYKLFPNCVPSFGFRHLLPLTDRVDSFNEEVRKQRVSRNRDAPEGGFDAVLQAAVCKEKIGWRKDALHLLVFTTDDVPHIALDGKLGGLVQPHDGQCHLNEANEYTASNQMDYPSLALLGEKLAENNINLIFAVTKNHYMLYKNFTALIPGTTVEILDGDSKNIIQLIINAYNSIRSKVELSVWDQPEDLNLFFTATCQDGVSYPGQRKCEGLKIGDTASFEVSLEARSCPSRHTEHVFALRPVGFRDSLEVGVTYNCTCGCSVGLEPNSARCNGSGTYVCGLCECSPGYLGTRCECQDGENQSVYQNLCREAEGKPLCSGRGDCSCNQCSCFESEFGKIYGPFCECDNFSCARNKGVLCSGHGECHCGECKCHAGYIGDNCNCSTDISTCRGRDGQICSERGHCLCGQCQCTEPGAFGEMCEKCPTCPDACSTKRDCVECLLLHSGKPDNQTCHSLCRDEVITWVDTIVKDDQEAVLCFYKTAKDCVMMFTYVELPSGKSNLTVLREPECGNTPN
Recombinant human integrin αvβ8, sequence (P06756 31-992): as the sequence (P06756 31-992) above
Recombinant human integrin αvβ8, sequence (P26012 43-684): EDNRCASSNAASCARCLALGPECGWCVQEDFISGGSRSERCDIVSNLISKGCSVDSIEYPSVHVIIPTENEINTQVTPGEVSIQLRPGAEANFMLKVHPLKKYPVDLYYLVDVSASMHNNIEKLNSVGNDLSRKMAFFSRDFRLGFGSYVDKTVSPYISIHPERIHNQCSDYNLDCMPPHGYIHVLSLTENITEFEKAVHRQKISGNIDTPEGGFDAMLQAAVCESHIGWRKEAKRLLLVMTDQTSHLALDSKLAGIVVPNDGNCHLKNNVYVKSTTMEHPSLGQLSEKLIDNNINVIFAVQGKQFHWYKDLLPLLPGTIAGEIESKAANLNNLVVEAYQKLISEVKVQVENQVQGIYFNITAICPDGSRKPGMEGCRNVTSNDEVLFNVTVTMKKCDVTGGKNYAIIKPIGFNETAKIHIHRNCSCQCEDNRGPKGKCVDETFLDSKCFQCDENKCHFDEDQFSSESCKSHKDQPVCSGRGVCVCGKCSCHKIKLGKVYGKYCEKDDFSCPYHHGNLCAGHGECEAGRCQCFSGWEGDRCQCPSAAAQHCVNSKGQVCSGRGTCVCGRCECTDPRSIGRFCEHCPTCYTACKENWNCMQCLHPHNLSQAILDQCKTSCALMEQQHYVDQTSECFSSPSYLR
Recombinant human integrin αvβ1, sequence (P06756 31-992): as the sequence (P06756 31-992) above
Recombinant human integrin αvβ1, sequence (P05556 21-728): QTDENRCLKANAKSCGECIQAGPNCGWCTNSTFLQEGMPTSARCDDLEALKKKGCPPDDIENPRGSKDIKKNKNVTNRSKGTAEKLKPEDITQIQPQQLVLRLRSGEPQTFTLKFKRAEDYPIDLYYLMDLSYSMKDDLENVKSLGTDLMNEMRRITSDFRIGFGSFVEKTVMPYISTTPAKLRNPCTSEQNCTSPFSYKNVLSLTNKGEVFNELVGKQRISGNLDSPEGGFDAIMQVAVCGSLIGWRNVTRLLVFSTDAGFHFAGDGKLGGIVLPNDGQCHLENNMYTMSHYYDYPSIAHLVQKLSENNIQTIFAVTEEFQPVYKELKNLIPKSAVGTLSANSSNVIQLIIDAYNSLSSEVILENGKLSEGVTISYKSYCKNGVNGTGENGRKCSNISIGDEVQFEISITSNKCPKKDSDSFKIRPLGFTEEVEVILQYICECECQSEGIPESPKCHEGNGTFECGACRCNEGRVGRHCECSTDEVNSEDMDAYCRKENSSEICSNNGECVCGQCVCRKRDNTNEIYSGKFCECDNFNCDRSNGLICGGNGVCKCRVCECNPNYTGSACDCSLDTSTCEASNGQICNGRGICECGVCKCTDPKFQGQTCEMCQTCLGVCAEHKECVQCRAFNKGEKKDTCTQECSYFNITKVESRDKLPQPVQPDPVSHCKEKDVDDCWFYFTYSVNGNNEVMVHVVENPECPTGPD

Structure (SMILES)	IC50 [1] [nM]	IC50 [2] [nM]	IC50 [3] [nM]
O=C(O)C[C@H](NC(=O)CNC(=O)c1cncc(NC2=NCC(O)CN2)c1)c1cc(Br)cc(C(F)(F)F)c1 (stereo partly drawn) [Example 9, (3S)-3-[3-bromo-5-(trifluoromethyl)phenyl]-3-[[2-[[5-[(5-hydroxy-1,4,5,6-tetrahydropyrimidin-2-yl)amino]pyridine-3-carbonyl]amino]acetyl]amino]propanoic acid]	0.3	1	0.3
O=C(O)C[C@H](NC(=O)CNC(=O)c1cc(O)cc(NC2=NCC(O)CN2)c1)c1cc(Cl)cc(Br)c1 (stereo partly drawn) [Example 6, (3S)-3-[3-bromo-5-chloro-phenyl)-3-(2-(3-hydroxy-5-((5-hydroxy-1,4,5,6-tetrahydropyrimidin-2-yl)amino)benzamido)acetamido]propanoic acid]	0.5	3	0.2
O=C(O)C[C@H](NC(=O)CNC(=O)c1cncc(NC2=NCC(O)CN2)c1)c1cc(Cl)cc(Br)c1 (stereo partly drawn) [Example 8, (3S)-3-(3-bromo-5-chloro-phenyl)-3-[[2-[[5-[(5-hydroxy-1,4,5,6-tetrahydropyrimidin-2-yl)amino]pyridine-3-carbonyl]amino]acetyl]amino]propanoic acid]	0.4	1	0.1
Cc1cc(Br)cc([C@H](CC(=O)O)NC(=O)CNC(=O)c2cc(O)cc(NC3=NCC(O)CN3)c2)c1 (stereo partly drawn) [Example 11, (3S)-3-[3-bromo-5-methyl-phenyl)-3-(2-(3-hydroxy-5-((5-hydroxy-1,4,5,6-tetrahydropyrimidin-2-yl)amino)benzamido)acetamido)propanoic acid]	0.6	0.4	0.3
Cc1cc(Cl)cc([C@H](CC(=O)O)NC(=O)CNC(=O)c2cc(O)cc(NC3=NCC(O)CN3)c2)c1 (stereo partly drawn) [Example 12, (3S)-3-[3-chloro-5-methyl-phenyl)-3-(2-(3-hydroxy-5-((5-hydroxy-1,4,5,6-tetrahydropyrimidin-2-yl)amino)benzamido)acetamido)propanoic acid]	0.7 ± 0.1	4 ± 2	0.4
O=C(O)C[C@H](NC(=O)CNC(=O)c1cc(O)cc(NC2=NCC(O)CN2)c1)c1cc(Cl)cc(C(F)(F)F)c1 (stereo partly drawn) [Example 5, (3S)-3-[3-chloro-5-(trifluoromethyl)phenyl)-3-(2-(3-hydroxy-5-((5-hydroxy-1,4,5,6-tetrahydropyrimidin-2-yl)amino)benzamido)acetamido]propanoic acid]	0.6	2	0.5

Further lines, results first:

IC50 [1] [nM]	IC50 [2] [nM]	IC50 [3] [nM]	Structure (SMILES)
2	7	2	O=C(O)CC(NC(=O)CNC(=O)c1cc(O)cc(NC2=NCC(O)CN2)c1)c1cc(Cl)cc(Cl)c1O (stereo not drawn) [Example C3, reference compound]
9 ± 6	8 ± 6	1	Cc1ccc(O)c(C(CC(=O)O)NC(=O)CNC(=O)c2cc(O)cc(NC3=NCC(O)CN3)c2)c1 (stereo not drawn) [Example C6, reference compound]
1.1 ± 0.3	4 ± 1	0.3	O=C(O)C[C@H](NC(=O)CNC(=O)c1cc(O)cc(NC2=NCC(O)CN2)c1)c1cc(Cl)cc(Cl)c1 (stereo partly drawn) [Example 15, (3S)-3-[3,5-dichloro-phenyl)-3-(2-(3-hydroxy-5-((5-hydroxy-1,4,5,6-tetrahydropyrimidin-2-yl)amino)benzamido)acetamido)propanoic acid]

From patent publication US10035778B2, “Meta-azacyclic amino benzoic acid derivatives as pan integrin antagonists” (Saint Louis University, priority 2015, dated 2018)
